The text below walks through data of patent publication US20210386877A1, “RADIOTHERAPEUTIC COMBINATION THERAPY FOR THE TREATMENT OF CANCER” (Andarix Pharmaceuticals, Inc., priority 2019, published 2021).

The conditions of data set [1]: intravenously, 1.5 mg/m^2, daily×5, every 21 days; cited from earlier work.
Data set [2] relates to SSTR. The settings on record: P2045 radiolabeled with radioactive isotopes of rhenium; versus Depreotide; cited from earlier work.
The conditions of data set [3]: P2045 radiolabeled with radioactive isotopes of rhenium; versus Depreotide; cited from earlier work.
The subject of data set [4] is SSTR2. As to the kind of experiment: SSTR2 expression in small cell cell lines after 24 hours of incubation (FIG. 2, FIG. 3). In kind it is cell-based. The settings on record: H69, H187 and H417 cell lines, 3 and 5 mM valproic acid, versus beta-actin (control). The protocol:
FIG. 3 graphically quantifies the expression of SSTR2 in small cell cell lines after 24 hours of incubation with 3 and 5 mM valproic acid versus the demethylating agent, Decitabine.
FIG. 3 graphically quantifies the expression of SSTR2 […].

The conditions of data set [5]: cited from earlier work.

The structures appear in SMILES notation. *1 amine or outer side, *2 acyl side, *3 side chain or, on linkers, in order; H or OH if unused. Where a SMILES comes first, the peptide text is derived from it. Bridges are numbered along the chain shown (N, C = ends). Roman numbers before positions name the chains, in order. [ ]: non-standard residue; d: D form. ξ: configuration not given here. Phe(4-NH2) = Nc1ccc(C[C@H](N)C(=O)O)cc1; NMehCys = CN[C@@H](CCS)C(=O)O; Thr(3ξ) = CC(O)[C@H](N)C(=O)O; Dap = NC[C@H](N)C(=O)O; X1 = O=C(C[*:1])[*:2]

Take `CC[C@@]1(O)C(=O)OCc2c1cc1n(c2=O)Cc2cc3c(CN(C)C)c(O)ccc3nc2-1` [topotecan]: the most common toxicities result in data set [1] is “hematologic (grade 4 neutropenia, thrombocytopenia and grade 3/4 anemia)”.

As to `CC(O)[C@H](NC(=O)[C@H](CS)NC(=O)[C@H](Cc1ccc(N)cc1)NC(=O)[C@@H](N)CNC(=O)CSCC[C@H]1C(=O)N[C@@H](Cc2ccc(O)cc2)C(=O)N[C@H](Cc2c[nH]c3ccccc23)C(=O)N[C@@H](CCCCN)C(=O)N[C@@H](C(C)O)C(=O)N[C@@H](Cc2ccccc2)C(=O)N1C)C(=O)N[C@@H](CO)C(=O)O` (stereo partly drawn) [P2045, cyclo-[Tyr-(D-Trp)-Lys-Thr-Phe-(N-Me)Hcy]CH2CO-β-Dap-Phe(4-NH2)-Cys-Thr-Ser-OH)]] (I: cyclo(F[NMehCys]Y[dW]K[Thr(3ξ)]) / II: H-[Dap][Phe(4-NH2)]C[Thr(3ξ)]S-OH; linker I:2-II:1 via X1), the SSTR affinity entry in data set [2] is given as “retains the SSTR affinity of Depreotide”. For the same compound, the “kidney and whole body retention” value in data set [3] is “lower kidney and whole body retention”.

For the compound `CCCC(CCC)C(=O)O` [valproic acid], in data set [4], the SSTR2 expression entry is given as “upregulation of SSTR2”. Besides, in data set [5], the “solubility in organic solvents” value was “very soluble”.
